Assay results taken from patent publication US12521375B2, “Pharmaceutical composition for treating fatty liver disease” (Shionogi & Co., Ltd., priority 2020, dated 2026).
Values joined by “and” are separate entries in the source; they are usually repeats but may differ in a detail not shown here. Equal values may be shown once.

What was measured:
[1] = Metabolic stability test (rat); type: in vitro ADME
Description: [Worded in the source for another species; this species is reported under the same test.] Commercially available pooled human liver microsomes were reacted with the compound of the present invention for a given time. A residual rate was calculated by comparison between the reacted sample and the unreacted sample to evaluate a degree at which the compound of the present invention is metabolized in the liver.
The compound was reacted at 37° C. for 0 minutes or 30 minutes in the presence of 1 mmol/L NADPH in 0.2 mL of a buffer (50 mmol/L Tris-HCl pH 7.4, 150 mmol/L potassium chloride, and 10 mmol/L magnesium chloride) containing 0.5 mg protein/mL of the human liver microsomes (oxidative reaction). After the reaction, 50 μL of the reaction solution was added to 100 μL of a solution of methanol/acetonitrile=1/1 (v/v) and mixed, and the mixture was centrifuged at 3000 rpm for 15 minutes. The compound of the present invention in the centrifuged supernatant was quantified by LC/MS/MS or solid-phase extraction (SPE)/MS. The amount of the compound of the present invention remained after the reaction was calculated with the amount of the compound at 0 minutes of the reaction defined as 100%.

[2] = test system: Malonyl-CoA concentration in organ; test: Test for evaluating malonyl-CoA concentration in liver and muscles; type: in vivo, BKS.Cg-+Lepr^db/+Lepr^db/Jcl mice; details: for Malonyl-CoA concentration in organ with vehicle administration group defined as 100%, Liver / Malonyl-CoA concentration in organ with vehicle administration group defined as 100%, Muscle: 2 hours after administration
Description: Eight-week-old male BKS.Cg-+Lepr^db/+Lepr^db/Jcl mice were fasted for 4 hours, then the compound of the present invention was orally administered at a dose of 0.3 to 6 mg/5 mL/kg, and 2 hours after administration, the mice were killed by exsanguination through whole blood collection from the abdominal vena cava under anesthesia. Then, the liver and muscles were removed, and a 9% homogenate was prepared in a homogenizing buffer (distilled water: 60% perchloric acid: 85% phosphoric acid=43:5:2). The malonyl-CoA concentration in the tissue was quantified by LC/MS/MS.

[3] = biological target: recombinant human ACC2 (Homo sapiens (Human), UniProt O00763); test: Measurement of inhibitory activity of human ACC2; type: biochemical; details: read-out: IC50 hACC2
Text: A cDNA encoding human ACC2 protein (27 amino acid residues to 2458 amino acid residues from the N-terminus) was cloned from a human kidney cDNA library (Clontech Laboratories, Inc.), a His-tag sequence was introduced at the 5′ end, and then inserted into pFastBac1 (Invitrogen). A recombinant baculovirus was produced in accordance with the protocol for a Bac-to-Bac baculovirus expression system (Invitrogen), and Sf-9 cells were infected therewith to express human ACC2 protein. The recovered cells were crushed, filtered through a filter, and then subjected to Ni affinity chromatography and anion exchange chromatography. Fractions containing human ACC2 protein were collected to obtain recombinant human ACC2.
The recombinant human ACC1 and the recombinant human ACC2 obtained from the above Preparation Examples were preincubated in an assay buffer (50 mM HEPES-KOH (pH 7.4), 10 mM magnesium chloride, 6 to 10 mM potassium citrate, 4 mM reduced glutathione, and 1.5 mg/ml bovine serum albumin) for 1 hour. […] After incubation, the enzymatic reaction was stopped by addition of EDTA, and then the compound was co-crystallized with an α-cyano-4-hydroxy cinnamic acid (CHCA) matrix on a MALDI target plate, and measurement was performed in a reflector negative mode using a matrix-assisted laser desorption ionization-time-of-flight mass spectrometer (MALDI-TOF MS). Deprotonated ions of the substrate acetyl-CoA (AcCoA) and the reaction product malonyl-CoA (MalCoA) were detected, and the intensity of each signal was used to calculate a conversion rate to malonyl-CoA […], i.e., intensity of [MalCoA-H]-/(intensity of [MalCoA-H]-+intensity of [AcCoA-H]-). […] The potassium citrate concentration in the assay buffer, the potassium bicarbonate concentration in the substrate solution, and the incubation time were adjusted within the above concentrations or reaction times for each lot of the enzyme to be used.

[4] = test system: high-fat diet-loaded mice with spontaneous fatty liver; test: Effect on liver fibrosis progression in high-fat diet-loaded mice with spontaneous fatty liver; type: in vivo, FLS.B6-Lep<ob>/Shi mice; parameters: 3-hydroxybutyric acid in plasma: unit not given here; details: for Amount of triglyceride in liver / Sirius red-positive area rate / 3-hydroxybutyric acid in plasma / Plasma triglyceride concentration / Change in hemoglobin A1c (day 26 of administration) − (before start of administration) / Hemoglobin A1c, Before start of administration / Hemoglobin A1c, Day 26 of administration: bid; for Amount of triglyceride in liver / Sirius red-positive area rate: oral, 4 weeks; for Change in hemoglobin A1c (day 26 of administration) − (before start of administration) / Hemoglobin A1c, Before start of administration / Hemoglobin A1c, Day 26 of administration: individual animals
Description: Eight-week-old male FLS.B6-Lep/Shi mice were fed a high-fat diet (60 kcal % fat content, using shortening, containing 2% cholesterol and 8.7% fructose), and at the same time, the compound of the present invention was suspended in a 0.5% MC aqueous solution so as to have a dose of 5.5 to 60 mg/kg/5 mL, and orally repeatedly administered (b.i.d.) for 4 weeks. Blood was collected from the tail vein during the repeated administration period, and biochemical parameters in plasma were measured. After 4 weeks of administration, blood was collected from the abdominal vena cava under anesthesia, and then the liver was collected. Paraffin-embedded sections prepared from the collected liver were subjected to Sirius red staining. A degree of fibrosis progression in the liver was determined from a Sirius red-positive area rate and evaluated.

Chain of recombinant human ACC2 (O00763 27-2458): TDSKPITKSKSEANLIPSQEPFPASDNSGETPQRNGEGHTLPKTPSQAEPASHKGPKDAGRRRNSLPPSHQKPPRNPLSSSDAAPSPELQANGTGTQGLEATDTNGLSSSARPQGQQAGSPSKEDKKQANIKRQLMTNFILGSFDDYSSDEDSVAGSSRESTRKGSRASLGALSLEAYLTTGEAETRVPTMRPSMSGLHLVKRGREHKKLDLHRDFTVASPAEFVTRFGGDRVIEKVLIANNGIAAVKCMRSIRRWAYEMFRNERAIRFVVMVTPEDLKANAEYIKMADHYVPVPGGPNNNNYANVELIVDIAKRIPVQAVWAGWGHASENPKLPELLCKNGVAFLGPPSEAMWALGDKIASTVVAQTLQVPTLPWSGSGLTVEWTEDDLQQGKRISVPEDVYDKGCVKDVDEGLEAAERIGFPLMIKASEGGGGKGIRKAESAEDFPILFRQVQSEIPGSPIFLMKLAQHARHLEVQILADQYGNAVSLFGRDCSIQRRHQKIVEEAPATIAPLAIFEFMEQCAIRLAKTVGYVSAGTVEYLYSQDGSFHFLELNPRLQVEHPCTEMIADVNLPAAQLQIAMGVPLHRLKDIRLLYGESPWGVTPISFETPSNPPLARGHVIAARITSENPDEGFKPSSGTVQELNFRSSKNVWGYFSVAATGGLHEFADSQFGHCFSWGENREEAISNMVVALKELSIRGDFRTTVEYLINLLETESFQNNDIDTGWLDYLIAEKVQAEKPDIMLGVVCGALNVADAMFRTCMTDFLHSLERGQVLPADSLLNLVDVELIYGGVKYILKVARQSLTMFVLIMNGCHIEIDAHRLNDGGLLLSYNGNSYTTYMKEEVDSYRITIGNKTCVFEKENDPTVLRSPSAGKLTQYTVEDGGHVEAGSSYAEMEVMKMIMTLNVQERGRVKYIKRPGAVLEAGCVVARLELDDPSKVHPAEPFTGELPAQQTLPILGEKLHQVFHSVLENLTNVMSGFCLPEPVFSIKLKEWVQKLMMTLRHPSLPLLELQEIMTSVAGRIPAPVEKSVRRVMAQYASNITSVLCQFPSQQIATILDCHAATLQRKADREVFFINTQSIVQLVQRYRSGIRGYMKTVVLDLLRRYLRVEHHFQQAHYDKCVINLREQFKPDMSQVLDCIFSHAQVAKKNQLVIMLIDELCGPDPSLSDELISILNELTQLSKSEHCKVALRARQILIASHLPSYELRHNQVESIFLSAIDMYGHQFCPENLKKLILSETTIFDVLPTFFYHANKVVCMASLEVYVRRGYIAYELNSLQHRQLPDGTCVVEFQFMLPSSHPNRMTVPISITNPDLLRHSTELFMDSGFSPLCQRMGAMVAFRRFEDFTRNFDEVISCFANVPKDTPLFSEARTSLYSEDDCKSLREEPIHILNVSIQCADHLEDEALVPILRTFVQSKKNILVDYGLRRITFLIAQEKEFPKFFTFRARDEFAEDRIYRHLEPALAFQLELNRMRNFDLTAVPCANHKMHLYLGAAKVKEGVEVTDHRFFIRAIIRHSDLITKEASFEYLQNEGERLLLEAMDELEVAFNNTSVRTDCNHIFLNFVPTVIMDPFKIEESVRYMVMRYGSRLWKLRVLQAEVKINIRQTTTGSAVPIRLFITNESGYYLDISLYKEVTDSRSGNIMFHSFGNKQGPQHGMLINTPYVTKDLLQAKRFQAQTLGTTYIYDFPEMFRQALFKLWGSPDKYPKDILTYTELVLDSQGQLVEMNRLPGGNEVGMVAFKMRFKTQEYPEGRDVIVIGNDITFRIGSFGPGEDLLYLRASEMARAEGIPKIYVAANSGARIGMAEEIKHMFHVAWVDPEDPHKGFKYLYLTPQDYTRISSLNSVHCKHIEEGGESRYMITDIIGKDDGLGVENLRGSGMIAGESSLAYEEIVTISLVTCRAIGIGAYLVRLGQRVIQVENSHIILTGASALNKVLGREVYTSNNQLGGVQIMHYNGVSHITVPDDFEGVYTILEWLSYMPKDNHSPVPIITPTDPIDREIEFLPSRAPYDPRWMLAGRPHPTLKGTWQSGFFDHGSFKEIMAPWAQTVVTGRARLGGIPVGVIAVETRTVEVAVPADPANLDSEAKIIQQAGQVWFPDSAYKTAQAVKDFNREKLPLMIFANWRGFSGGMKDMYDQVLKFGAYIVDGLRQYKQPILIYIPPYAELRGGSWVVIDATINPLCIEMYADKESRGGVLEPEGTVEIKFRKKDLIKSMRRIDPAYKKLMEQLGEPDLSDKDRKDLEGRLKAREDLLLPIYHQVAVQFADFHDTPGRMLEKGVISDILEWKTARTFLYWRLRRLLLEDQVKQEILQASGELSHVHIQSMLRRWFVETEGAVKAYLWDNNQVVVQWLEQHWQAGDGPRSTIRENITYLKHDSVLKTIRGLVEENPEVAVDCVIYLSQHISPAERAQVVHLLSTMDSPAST

- Amount of compound remained, Rat [1]: 87%
- IC50 [3]: 6.6 nM
- Plasma triglyceride concentration ([4]; 30 mg/kg, Week 0): 680 ± 81 mg/dL
- Plasma triglyceride concentration ([4]; 30 mg/kg, Week 1): 299 ± 27 mg/dL
- Plasma triglyceride concentration ([4]; 30 mg/kg, Week 4): 600 ± 59 mg/dL
- Plasma triglyceride concentration ([4]; 45 mg/kg, Week 0): 644 ± 89 mg/dL
- Plasma triglyceride concentration ([4]; 45 mg/kg, Week 1): 279 ± 40 mg/dL
- Plasma triglyceride concentration ([4]; 45 mg/kg, Week 4): 572 ± 54 mg/dL
- Plasma triglyceride concentration ([4]; 60 mg/kg, Week 0): 829 ± 97 mg/dL
- Plasma triglyceride concentration ([4]; 60 mg/kg, Week 1): 322 ± 30 mg/dL
- Plasma triglyceride concentration ([4]; 60 mg/kg, Week 4): 641 ± 86 mg/dL
Compound: CC(=O)N[C@@H](C)CC[C@H]1OC[C@H](Oc2nc3c(F)cc(OC4CC4)cc3n2C)CO1 [Compound I-13]
- Malonyl-CoA concentration in organ with vehicle administration group defined as 100%, Liver ([2]; 0.3 mg/kg oral): 90.9%
- Malonyl-CoA concentration in organ with vehicle administration group defined as 100%, Muscle ([2]; 0.3 mg/kg oral): 72.8%
- Malonyl-CoA concentration in organ with vehicle administration group defined as 100%, Liver ([2]; 1 mg/kg oral): 86.5%
- Malonyl-CoA concentration in organ with vehicle administration group defined as 100%, Muscle ([2]; 1 mg/kg oral): 64.9%
- Malonyl-CoA concentration in organ with vehicle administration group defined as 100%, Liver ([2]; 3 mg/kg oral): 79.9%
- Malonyl-CoA concentration in organ with vehicle administration group defined as 100%, Muscle ([2]; 3 mg/kg oral): 58.4%
- malonyl-CoA concentrations in the liver and muscles (in words) ([2]; 0.3 to 6 mg/kg oral): reduced malonyl-CoA concentrations in the liver and muscles in a compound dose-dependent manner
- Amount of triglyceride in liver ([4]; 30 mg/kg): 234 ± 21 mg/g tissue
- Sirius red-positive area rate ([4]; 30 mg/kg): 3.05 ± 0.28 %
- 3-hydroxybutyric acid in plasma ([4]; 30 mg/kg, Week 0): 252 ± 73
- 3-hydroxybutyric acid in plasma ([4]; 30 mg/kg, Week 1): 397 ± 140
- 3-hydroxybutyric acid in plasma ([4]; 30 mg/kg, Week 4): 1888 ± 570
- Change in hemoglobin A1c (day 26 of administration) − (before start of administration) ([4]; 30 mg/kg): 1.10% and 2.61% and 0.359% and 0.580% and 0.200% and 1.37% and 0.484% and 1.14% and 1.05%
- Hemoglobin A1c, Before start of administration ([4]; 30 mg/kg): 6.40% and 6.59% and 6.70% and 6.32% and 7.03% and 7.49% and 7.05% and 6.78% and 6.28%
- Hemoglobin A1c, Day 26 of administration ([4]; 30 mg/kg): 7.50% and 9.21% and 7.05% and 6.90% and 7.23% and 8.86% and 7.54% and 7.91% and 7.32%
- Amount of triglyceride in liver ([4]; 45 mg/kg): 211 ± 19 mg/g tissue
- Sirius red-positive area rate ([4]; 45 mg/kg): 2.65 ± 0.34 %
- 3-hydroxybutyric acid in plasma ([4]; 45 mg/kg, Week 0): 291 ± 130
- 3-hydroxybutyric acid in plasma ([4]; 45 mg/kg, Week 1): 829 ± 490
- 3-hydroxybutyric acid in plasma ([4]; 45 mg/kg, Week 4): 1803 ± 640
- Change in hemoglobin A1c (day 26 of administration) − (before start of administration) ([4]; 45 mg/kg): 0.591% and 0.429% and −0.888% and −0.504% and 2.17% and 0.162% and 0.562% and 1.50% and 0.667%
- Hemoglobin A1c, Before start of administration ([4]; 45 mg/kg): 6.58% and 6.74% and 7.06% and 5.77% and 5.87% and 7.03% and 6.43% and 6.83% and 7.47%
- Hemoglobin A1c, Day 26 of administration ([4]; 45 mg/kg): 7.17% (2×) and 6.17% and 5.26% and 8.04% and 7.19% and 6.99% and 8.33% and 8.13%
- Amount of triglyceride in liver ([4]; 60 mg/kg): 235 ± 20 mg/g tissue
- Sirius red-positive area rate ([4]; 60 mg/kg): 2.75 ± 0.36 %
- 3-hydroxybutyric acid in plasma ([4]; 60 mg/kg, Week 0): 217 ± 28
- 3-hydroxybutyric acid in plasma ([4]; 60 mg/kg, Week 1): 351 ± 72
- 3-hydroxybutyric acid in plasma ([4]; 60 mg/kg, Week 4): 1260 ± 170
- Change in hemoglobin A1c (day 26 of administration) − (before start of administration) ([4]; 60 mg/kg): 0.493% and 0.0708% and 0.696% and 0.463% and 0.150% and −0.0552% and 0.719% and −0.0504%
- Hemoglobin A1c, Before start of administration ([4]; 60 mg/kg): 5.50% and 6.36% and 6.46% and 6.60% and 7.12% and 6.80% and 6.55% and 5.83%
- Hemoglobin A1c, Day 26 of administration ([4]; 60 mg/kg): 5.99% and 6.43% and 7.16% and 7.06% and 7.27% (2×) and 6.74% and 5.78%
- Sirius red-positive area rate vs vehicle administration group (in words) ([4]; dose of 30, 45, or 60 mg/kg): significantly lower than that of the vehicle administration group
- amount of triglyceride in the liver vs vehicle administration group (in words) ([4]; mouse, in vivo): not significantly different from that in the vehicle administration group
- concentration of 3-hydroxybutyric acid in plasma vs vehicle administration group (in words) ([4]; mouse, in vivo): tended to be higher than that in the vehicle administration group
- hemoglobin A1c (in words) ([4]; mouse, in vivo): tended to suppress an increase in hemoglobin A1c
- plasma triglyceride concentration vs vehicle administration group (in words) ([4]; mouse, in vivo): not significantly different from that in the vehicle administration group
